For experiment [1], the target named is T1, human FAAH (Fatty Acid Amide Hydrolase) (Homo sapiens, UniProt O00519).
T1 construct: The full length FAAH was subcloned into the mammalian expression vector, pcDEF.neo, using XbaI and EcoRI restriction sites; expressed in transfected cells
T1 sequence (O00519 1-579): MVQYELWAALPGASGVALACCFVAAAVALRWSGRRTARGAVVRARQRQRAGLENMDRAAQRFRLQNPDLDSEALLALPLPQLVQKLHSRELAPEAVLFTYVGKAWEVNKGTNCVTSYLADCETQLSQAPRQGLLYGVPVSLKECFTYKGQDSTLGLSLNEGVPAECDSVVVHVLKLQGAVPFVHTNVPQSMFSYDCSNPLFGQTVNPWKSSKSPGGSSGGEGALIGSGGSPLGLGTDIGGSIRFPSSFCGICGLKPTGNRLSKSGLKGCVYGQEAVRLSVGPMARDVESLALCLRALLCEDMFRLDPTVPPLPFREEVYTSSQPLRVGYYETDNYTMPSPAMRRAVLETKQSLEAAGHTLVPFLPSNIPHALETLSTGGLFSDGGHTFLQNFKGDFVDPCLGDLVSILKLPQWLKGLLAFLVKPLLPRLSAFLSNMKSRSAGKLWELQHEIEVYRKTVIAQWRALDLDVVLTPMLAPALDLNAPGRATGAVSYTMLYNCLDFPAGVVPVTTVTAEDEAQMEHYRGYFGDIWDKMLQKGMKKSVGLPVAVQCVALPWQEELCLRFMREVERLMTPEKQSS
Description: FAAH enzyme assay on CHO cell lysate expressing human FAAH (human LY), AAMCA fluorescent substrate. The note with it: human FAAH_CHO cell lysate. In kind it is biochemical. An excerpt: To assist in assay development stable cell lines for human, murine and rat full length FAAH were developed. Human FAAH cDNA (Accession No: NM_001441.1) was purchased from Origene (Rockville, Md.). The full length FAAH was subcloned into the mammalian expression vector, pcDEF.neo, using XbaI and EcoRI restriction sites and used for stable cell line generation.
CHO cells expressing FAAH were used to prepare either crude cell lysate or microsome fractions. To harvest cells, tissue culture media was decanted, the monolayer washed three times with Ca^++Mg^++ free PBS and cells recovered after […] in enzyme free dissociation media (Millipore Corp, Billerica, Mass.). Cells were collected by centrifuging at 2000 rpm for 15 min. and the cell pellet re-suspended with 50 mM HEPES (pH 7.4) containing 1 mM EDTA and the protease inhibitors aprotinin (1 mg/ml) and leupeptin (100 μM). The suspension was sonicated at 4° C. and the cell lysate recovered after centrifuging at 12,000×g (14,600 rpm, SS34 rotor) for 20 min at 4° C. to form a crude pellet of cell debris, nuclei, peroxisomes, lysosomes, and mitochondria; the supernatant or cell lysate was used for FAAH enzyme assay. In some cases, microsomes fractions enriched in FAAH were prepared by centrifuging the cell lysate further at 27,000 rpm (100,000×g) in SW28 rotor for 50 minutes at 4° C. The pellet containing FAAH-enriched microsomes was re-suspend in 50 mM HEPES, (pH 7.4) 1 mM EDTA, and any remaining DNA sheared by passage of material through a 23 gauge needle and aliquots of enzyme were store at −80° C. prior to use.
(American Radiolabeled Chemicals; 1 mCi/ml) with FAAH (Life Sciences (1995), 56, 1999-2005 and Journal of Pharmacology and Experimented Therapeutics (1997), 283, 729-734), Analytical. Biochemistry (2003), 318, 270-5. In addition, routine assays were performed monitoring hydrolysis of arachidonyl-7-amino-4-methylcoumarin amide (AAMCA) by following increase in fluorescence upon release of 7-amino 4-methyl coumarin (λEX=355 nm, μEM=460 nm). Analytical. Biochemistry (2005). 343, 143-51
Assays are performed on either cell lysate or microsome fractions prepared as described or in whole cell format employing either the fluorescent substrate AAMCA (Cayman chemical, Ann Arbor, Mich.,) or ^3H-anandamide ([ETHANOLAMINE-1-3H] American Radiolabeled Chemicals; 1 mCi/ml). The cell lysate or microsome assay is performed in black PerkinElmer OptiPlates-384F by adding FAAH_CHO (whole cell (human whole cell or human WC), cell lysate (human cell lysate or human LY) or microsome) in assay buffer (50 mM Phosphate, pH 8.0, 1 mM EDTA, 200 mM KCl, 0.2% glycerol, 0.1% fatty acid free BSA) to each well, followed by either DMSO or compound and allowed to incubate at 22-25° C. for fifteen minutes. AAMCA substrate was used to achieve a final concentration of 1 μM and reaction allowed to proceed at room temperature for 1-3 hours. Fluorescent release as a measure of FAAH activity was monitored by reading the plate in a Envision plate Reader (Ex: 360/40 nM; Em: 460/40 nM). Whole cell assay is conducted with cells harvested after rinsing tissue culture flasks three times with Ca^++Mg^++ free PBS, incubating for […] in Enzyme free dissociation media and centrifuging for 5 minutes at 1,000 rpm in table top centrifuge. Cells are resuspended in assay buffer at desired cell number in (4×10^4 cells/assay in 96-well format; 1×10^4 cells/assay in 384-well format) and assayed as described.

Experiment [2] has as its target T1, human FAAH (Fatty Acid Amide Hydrolase). Description: FAAH whole cell assay on CHO cells expressing human FAAH (human WC), AAMCA fluorescent substrate. In kind it is cell-based. The note with it: human FAAH_CHO whole cell. Summed up:
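CHO cells stably expressing full-length human FAAH, harvested with enzyme-free dissociation and resuspended at 4×10^4 cells/assay (96-well) or 1×10^4 (384-well) in 50 mM phosphate pH 8.0, 1 mM EDTA, 200 mM KCl, 0.2% glycerol, 0.1% BSA.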

For orientation: IC50 means the concentration needed to halve the response being measured. Take `CC(C)(O)/C=C/c1[nH]c2ncccc2c1Sc1ccc(Cl)cc1` [Example B34]: the IC50 in experiment [1] amounted to 213 nM; in experiment [2], 1110 nM.
For the compound `Clc1ccc(Sc2c(-c3cnn4c3CCCC4)[nH]c3ncccc23)cc1` [Example B35], the IC50 worked out at 33.5 nM in experiment [1] and 344 nM in experiment [2].
Take `OC1CC=C(c2[nH]c3ncccc3c2Sc2ccc(Cl)cc2)CC1` (stereo not drawn) [Example B36]: the IC50 in experiment [1] was 1.79 nM; in experiment [2], 9.53 nM.
Turning to `Clc1ccc(Sc2c(-c3ccc(C4CC4)nc3)[nH]c3ncccc23)cc1` [Example B37], the IC50 stood at 6.42 nM in experiment [1] and 21.7 nM in experiment [2].
With `CC(O)C/C=C/c1[nH]c2ncccc2c1Sc1ccc(Cl)cc1` (stereo not drawn) [Example B38], the IC50 in experiment [1] was 22.5 nM; in experiment [2] it was 352 nM.
For the compound `FC(F)(F)c1ccc(/C=C/c2[nH]c3ncccc3c2Sc2ccc(Cl)cc2)cc1` [Example B39], the IC50 in experiment [1] and in experiment [2] was 370 nM throughout.
For the compound `Clc1ccc(Sc2c(C3=CCCCC3)[nH]c3ncccc23)cc1` [Example B40], the IC50 is 15.9 nM in experiment [1] and 68.4 nM in experiment [2].
Consider `COc1cc(-c2[nH]c3ncccc3c2Sc2ccc(Cl)cc2)cnc1OC` [Example B41], for which the results for the IC50 in experiment [1] and in experiment [2] were 6.39 nM and 16.2 nM, respectively.
For `COc1ccc(-c2[nH]c3ncccc3c2Sc2ccc(Cl)cc2)cn1` [Example B43], the IC50 in experiment [1] turned out to be 3.42 nM; in experiment [2] it was 18.9 nM.
`FC(F)Oc1ccc(-c2[nH]c3ncccc3c2Sc2ccc(Cl)cc2)cc1` [Example B45]: the IC50 in experiment [1] stood at 3.28 nM; in experiment [2] it was 15.7 nM.
Take `NC1CC=C(c2[nH]c3ncccc3c2Sc2ccc(Cl)cc2)CC1` (stereo not drawn) [Example B46]: the IC50 worked out at 114 nM in experiment [1] and 1410 nM in experiment [2].
With `O=C(O)C1CC=C(c2[nH]c3ncccc3c2Sc2ccc(Cl)cc2)CC1` (stereo not drawn) [Example B47], the IC50 is 252 nM in experiment [1] and 573 nM in experiment [2].
For `CCNC(=O)C1CC=C(c2[nH]c3ncccc3c2Sc2ccc(Cl)cc2)CC1` (stereo not drawn) [Example B48], the figures for the IC50 in experiment [1] and in experiment [2] were 9.5 nM and 29.1 nM, respectively.
As to `O=C(NCCO)C1CC=C(c2[nH]c3ncccc3c2Sc2ccc(Cl)cc2)CC1` (stereo not drawn) [Example B49], the half-inhibitory concentration (IC50) in experiment [1] is 23.8 nM; in experiment [2], 66.3 nM.
The like results for `OCC1CC=C(c2[nH]c3ncccc3c2Sc2ccc(Cl)cc2)CC1` (stereo not drawn) [Example B50, (4-{3-[(4-chlorophenyl)sulfanyl]-1H-pyrrolo[2,3-b]pyridin-2-yl}cyclohex-3-en-1-yl)methanol] were, in that order, 3.06 nM and 8.04 nM.
The like results for `OC[C@H]1CC[C@@H](c2[nH]c3ncccc3c2Sc2ccc(Cl)cc2)CC1` [Example B51] were, in that order, 14.6 nM and 73.9 nM.
On to `O=C(N[C@H]1CC[C@H](O)CC1)c1[nH]c2ncccc2c1Sc1ccc(Cl)cc1` [Example C4, 3-[(4-chlorophenyl)sulfanyl]-N-(trans-4-hydroxycyclohexyl)-1H-pyrrolo[2,3-b]pyridine-2-carboxamide], for which the IC50 in experiment [1] came to 7.64 nM; in experiment [2], 48 nM.
`COc1ccc(NC(=O)c2[nH]c3ncccc3c2Sc2ccc(Cl)cc2)cn1` [Example C8]: the IC50 in experiment [1] came to 42.9 nM; in experiment [2], 272 nM.
`CC1(C)CCC(NC(=O)c2[nH]c3ncccc3c2Sc2ccc(Cl)cc2)CC1` [Example C9]: the IC50 came to 251 nM in experiment [1] and 773 nM in experiment [2].
`O=C(NCC(O)C1CCCCC1)c1[nH]c2ncccc2c1Sc1ccc(Cl)cc1` (stereo not drawn) [Example C10]: the half-inhibitory concentration (IC50) in experiment [1] was found to be 660 nM; in experiment [2] it was 1990 nM.
Turning to `O=C(NCc1ccc(O)c(O)c1)c1[nH]c2ncccc2c1Sc1ccc(Cl)cc1` [Example C11], the values for the half-inhibitory concentration (IC50) in experiment [1] and in experiment [2] were 15.2 nM and 107 nM, respectively.
Consider `O=C(c1[nH]c2ncccc2c1Sc1ccc(Cl)cc1)N1CCc2ccncc21` [Example C12], for which the IC50 in experiment [1] is 2080 nM; in experiment [2], 2680 nM.
Regarding `CC(C1COc2ccccc2O1)N(C)C(=O)c1[nH]c2ncccc2c1Sc1ccc(Cl)cc1` (stereo not drawn) [Example C13], the figures for the IC50 in experiment [1] and in experiment [2] were 256 nM and 2630 nM, respectively.
For the compound `O=C(Nc1ccc2c(c1)OCCO2)c1[nH]c2ncccc2c1Sc1ccc(Cl)cc1` [Example C14], the IC50 in experiment [1] was 7.43 nM; in experiment [2] it was 28.5 nM.
The like results for `O=C(Nc1ccc2c(c1)OCO2)c1[nH]c2ncccc2c1Sc1ccc(Cl)cc1` [Example C15] were, in that order, 5.9 nM and 9.92 nM.
For `O=C(Nc1ccc2[nH]ncc2c1)c1[nH]c2ncccc2c1Sc1ccc(Cl)cc1` [Example C16], the figures for the IC50 in experiment [1] and in experiment [2] were 9.79 nM and 18.1 nM, respectively.
`O=C(NC1CCCCC1)c1[nH]c2ncccc2c1Sc1ccc(Cl)cc1` [Example C17]: the values for the concentration for half-maximal inhibition (IC50) in experiment [1] and in experiment [2] were 30.4 nM and 101 nM, respectively.
Consider `O[C@H]1CC[C@H](c2[nH]c3ncccc3c2Sc2ccc(Cl)cc2)CC1` [Example D5, trans-4-{3-[(4-chlorophenyl)sulfanyl]-1H-pyrrolo[2,3-b]pyridin-2-yl}cyclohexanol], for which the IC50 came out at 3.83 nM in experiment [1] and 9.16 nM in experiment [2].
For the compound `O[C@H]1CC[C@H](c2[nH]c3ncccc3c2Sc2ccc(Cl)cn2)CC1` [Example D6, trans-4-{3-[(5-chloropyridin-2-yl)sulfanyl]-1H-pyrrolo[2,3-b]pyridin-2-yl}cyclohexanol], the IC50 in experiment [1] came out at 13.4 nM; in experiment [2], 32.7 nM.
For the compound `O=C1CCC(c2[nH]c3ncccc3c2Sc2ccc(Cl)cc2)CC1` [Example D7, 4-{3-[(4-chlorophenyl)sulfanyl]-1H-pyrrolo[2,3-b]pyridin-2-yl}cyclohexanone], the results for the IC50 in experiment [1] and in experiment [2] were 14.2 nM and 22.8 nM, respectively.
In the case of `Cn1cccc2c(Sc3ccc(Cl)cc3)c(-c3ccc4c(c3)OCCO4)nc1-2` [Example E2, 3-[(4-chlorophenyl)sulfanyl]-2-(2,3-dihydro-1,4-benzodioxin-6-yl)-7-methyl-7H-pyrrolo[2,3-b]pyridine], the figures for the half-inhibitory concentration (IC50) in experiment [1] and in experiment [2] were 9.7 nM and 23.4 nM, respectively.
For `Cn1c(-c2ccc3c(c2)OCCO3)c(Sc2ccc(Cl)cc2)c2cccnc21` [Example E3, 3-[(4-chlorophenyl)sulfanyl]-2-(2,3-dihydro-1,4-benzodioxin-6-yl)-1-methyl-1H-pyrrolo[2,3-b]pyridine], the IC50 in experiment [1] stood at 6.51 nM; in experiment [2] it was 16.6 nM.
Regarding `Cn1cccc2c(Sc3ccc(Cl)cc3)c(-c3ccc4[nH]ncc4c3)nc1-2` [Example E4], the IC50 amounted to 4.22 nM in experiment [1] and 12.4 nM in experiment [2].

The values above are taken from patent US20130059850A1, “AZA-INDOLE DERIVATIVES USEFUL AS MODULATORS OF FAAH” (MERCK SHARP & DOHME CORP., priority 2010, published 2013).
